Common to all, as to assay: DTP human tumour cell line panel, 48 h
In test [1] the test system is M14 melanoma.
Test [2] deals with SN12C renal.
Test [3] deals with MALME-3M melanoma.
Test [4] concerns U251 CNS.
Test [5] has as its system HCC-2998 colon.
Test [6] concerns DMS 114 small cell lung.
Test [7] concerns DMS 273 small cell lung.
Test [8] deals with UO-31 renal.
The test system of test [9] is HOP-18 NSCLC.
The test system of test [10] is RXF 393 renal.
Test [11] has as its system UACC-62 melanoma.
Test [12] has as its system MDA-MB-435.

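1) Cells in 96-well plates. 2) Compound, 48 h, 5 concentrations. 3) Linear interpolation between surrounding doses. 4) Unreached endpoint = highest concentration. TGI is the concentration that stops growth completely.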

For `c1cnc2c(c1)-n1cccc1C1(CCOCC1)NN2`, the TGI in test [1], in [2], in [3], in [4], in [5] and in test [6] was > 100 µM each time. Moreover, the TGI in test [7], in test [8], in test [9] and in test [10] was > 100 µM throughout.

For the compound `CC(C)(C)C1CC[C@H]2c3c([nH]c4ccc(Br)cc34)[C@H]3C(=O)N(c4ccccc4)C(=O)[C@H]3[C@H]2C1` (some centres not stated), the TGI – broadly, the concentration giving total growth inhibition – is > 100 µM in [1]; 57.3 µM in test [2]; 87.4 µM in test [11]; > 100 µM in [3]; 36.5 µM in test [4]; > 100 µM in test [5]. Besides, the TGI is 69.1 µM in [6]; 22.4 µM in test [7]; > 100 µM in test [8]; > 100 µM in [9]; > 100 µM in test [10].

`Oc1c(Cl)c2nccnc2c2ccccc12`: the TGI in test [1], in [2], in test [11], in [3], in test [4] and in test [5] was > 100 µM each time. Besides, the TGI in [6], in test [7], in test [8], in [9] and in test [10] was > 100 µM throughout.

With `CS(=O)(=O)NNS(=O)(=O)c1ccc(Br)cc1`, the TGI in test [1], in [11], in [3], in test [4], in test [5] and in [6] was > 100 µM throughout. Also, the concentration for total growth inhibition (TGI) in test [7], in [8], in test [9] and in [10] was > 100 µM each time.

As to `c1ccc2[nH]c(-c3nc4ccccc4o3)nc2c1`, the TGI in test [1], in test [2], in [3], in test [4], in [5] and in [6] was > 100 µM throughout. In addition, the TGI in test [7] and in [8] was > 100 µM each time.

On to `O=C(CCN1CCCCC1CCO)Nc1ccc2c(c1)C(=O)c1ccc(NC(=O)CCN3CCCCC3CCO)cc1C2=O` (configuration not stated), for which the TGI in test [2] was 16 µM; in test [11], 13.9 µM; in test [3], 10.9 µM; in [4], 14.9 µM; in test [5], > 100 µM; in [6], 14.7 µM. Besides, the TGI was 12.5 µM in test [7], > 100 µM in test [8], 8.41 µM in [9] and 6.46 µM in test [10].

As to `CSc1n[nH]c(N)c1C(=O)Nc1ccc(Cl)cc1`, the TGI in test [1], in test [12], in test [2], in [11], in [3] and in [4] was > 100 µM each time. Further, the TGI in [5] is > 100 µM; in test [8], > 100 µM; in test [10], 60.7 µM.

`O=c1c2cc([N+](=O)[O-])ccc2n2n1Cc1ccccc1CC2`: the TGI in [1], in [12], in test [2], in test [11], in test [3] and in test [4] was > 100 µM throughout. The TGI in test [5], in test [8] and in test [10] was > 100 µM in each case.

Consider `Oc1c(OCc2nnc(CCCCCCCCc3nnc(COc4ccc5ccccc5c4O)n3Nc3ccccc3)n2Nc2ccccc2)ccc2ccccc12`, for which the TGI stood at 10.9 µM in [1]; 19.3 µM in [12]; 29.2 µM in test [2]; 16.5 µM in test [11]; 28.8 µM in test [3]; 25.5 µM in test [4]. Further, the TGI in [5] was 21.8 µM; in test [8], 19.6 µM; in test [10], 30.9 µM.

Take `COc1ccc(NC(=S)NN=C(C)c2cccc(C(C)=NNC(=S)Nc3ccc(OC)cc3)n2)cc1`: the TGI in test [1], in test [12], in test [2], in test [11], in [3] and in test [4] was > 100 µM in each case. The TGI in test [5], in [8] and in test [10] was > 100 µM in each case.

For the compound `COc1c(C2(c3ccc(F)cc3)SCCCS2)c(=O)c1=O`, the TGI in test [1], in test [12], in test [2], in [11], in test [3] and in test [4] was > 100 µM each time. Further, the total growth inhibition concentration (TGI) in test [5], in [8] and in test [10] was > 100 µM throughout.

Take `CCC1(O)C=CC(=O)C=C1`: the TGI in test [1] was 40.4 µM; in test [12], > 100 µM; in [2] it was > 100 µM; in test [11], 43.6 µM; in [3] it was 28.2 µM; in test [4], 34.9 µM. Moreover, the TGI in test [5] is > 100 µM; in test [8] it was 36.7 µM; in test [10] it was 38.2 µM.

In the case of `CC1C(c2ccc(N(C)C)cc2)c2cc3c(cc2OC1N1CCCC1)OCO3` (configuration not stated), the TGI in test [1] is > 100 µM; in test [12], 60.4 µM; in [2], > 100 µM; in [11], > 100 µM; in [3] it was > 100 µM; in test [4], > 100 µM. For the same compound, the TGI in test [5], in test [8] and in test [10] was > 100 µM in each case.

With `COc1ccc(CN2C(=O)CCC/C=C\[C@H]2CI)cc1`, the TGI in [1] was 22.6 µM; in [12] it was 25.2 µM; in [2] it was 27 µM; in test [11], 22.6 µM; in test [3], 24.4 µM; in test [4], 26.5 µM. The results for the TGI in test [5], in [8] and in test [10] were 23.8 µM, 23.8 µM and 17.2 µM, respectively.

(Values after PubChem BioAssay (NCI).)
